The text below walks through data of patent US8501713B2, “Drug combinations for the treatment of duchenne muscular dystrophy” (Summit Corporation PLC, priority 2007, dated 2013).

Structures are written as SMILES. Where only a bound is given, the exact number is not on record here.

For the first assay, the system named is Utrophin A promoter linked to a luciferase reporter gene. In words: Luciferase reporter assay (murine H2K cells). The format is cell-based. The following applies: Mus musculus, H2K mdx, luciferase level relative to control; H2K/mdx/Utro A reporter cells; compound 10 μM final concentration; read-out: Activity. A digest of the protocol:
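Compound at 10 μM final was applied for 48 hrs to plated H2K mdx myoblasts (33° C, 10% CO2, interferon-containing medium) bearing a luciferase gene under the utrophin A promoter. Luminescence from lysed cells served as read-out.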
On the technique in general: In a reporter assay the amount or activity of a reporter protein is the signal.
Regarding `CNC(=O)c1ccc2oc(-c3ccc(Cl)cc3)nc2c1` [Example 279, 2-(4-chlorophenyl)-N-methylbenzo[d]oxazole-5-carboxamide], the activity at 10 µM fell in the range of 301 to 400%. Consider `O=[N+]([O-])c1ccc2oc(-c3ccccn3)nc2c1` [Example 171, 5-nitro-2-(pyridin-2-yl)benzo[d]oxazole], for which the activity at 10 µM was under 200%. As for `CC(C)C(=O)Nc1ccc(-c2nc3ccc(Cl)cc3o2)cc1` [Example 333, N-(4-(6-chlorobenzo[d]oxazol-2-yl)phenyl)isobutyramide], the activity at 10 µM lay in the range of 201 to 300%.

Turning to `CCCC(=O)Nc1ccc2oc(-c3ccc(N(CC)CC)cc3)nc2c1` [Example 76, N-(2-(4-(diethylamino)phenyl)benzo[d]oxazol-5-yl)butyramide], the activity at 10 µM is under 200%.

With `O=C(Nc1ccc2oc(-c3ccccc3)nc2c1)c1cc(Cl)cc(Cl)c1` [Example 30, 3,5-dichloro-N-(2-phenylbenzo[d]oxazol-5-yl)benzamide], the activity at 10 µM is under 200%. `Nc1ccc2sc(-c3cccc(Cl)c3Cl)nc2c1` [Example 307, 2-(2,3-dichlorophenyl)benzo[d]thiazol-5-amine]: the activity at 10 µM lay in the range of 301 to 400%.

Regarding `Cc1ccc(-c2nc3ccc(N)cc3o2)cc1` [Example 237, 2-p-tolylbenzo[d]oxazol-6-amine], the activity at 10 µM is over 401%.

For the molecule `O=[N+]([O-])c1cc2oc(-c3ccc(Cl)cc3)nc2cc1Cl` [Example 326, 5-chloro-2-(4-chlorophenyl)-6-nitrobenzo[d]oxazole], the activity at 10 µM fell in the range of 301 to 400%. In the case of `CCCC(=O)Nc1cnc2oc(-c3ccccc3)nc2c1` [Example 170, N-(2-phenyloxazolo[5,4-b]pyridin-6-yl)butyramide], the activity at 10 µM is under 200%. As to `CC(C)C(=O)Nc1ccc2oc(-c3cccc4ccccc34)nc2c1` [Example 410, N-(2-(naphthalen-1-yl)benzo[d]oxazol-5-yl)isobutyramide], the activity at 10 µM is under 200%. On the same count and under the same terms, in the case of `CC(C)C(=O)Nc1ccc2oc(-c3ccc4c(c3)OCO4)nc2c1` [Example 300, N-(2-(benzo[d][1,3]dioxol-5-yl)benzo[d]oxazol-5-yl)isobutyramide] it was 301 to 400%; in that of `Cc1ccc(-c2nc3cc(NC(=O)c4cccnc4)ccc3o2)cc1` [Example 113, N-(2-p-tolylbenzo[d]oxazol-5-yl)nicotinamide], under 200%; in that of `CCC(=O)Nc1ccc2oc(-c3ccccc3)nc2c1` [Example 9, N-(2-phenylbenzo[d]oxazol-5-yl)propionamide], 201 to 300%. On to `COc1ccc(C(=O)Nc2ccc3oc(-c4ccc(Cl)cc4)nc3c2)cc1` [Example 91, N-(2-(4-chlorophenyl)benzo[d]oxazol-5-yl)-4-methoxybenzamide], for which the activity at 10 µM is under 200%. For `O=[N+]([O-])c1ccc2oc(N3CCOCC3)nc2c1` [Example 357, 2-morpholino-5-nitrobenzo[d]oxazole], the activity at 10 µM was under 200%. Same read-out and setting: in the case of `O=C(Nc1ccc2oc(-c3ccc(Cl)cc3)nc2c1)C1CCC1` [Example 266, N-(2-(4-chlorophenyl)benzo[d]oxazol-5-yl)cyclobutanecarboxamide] it was 301 to 400%. For `CC(C)C(=O)Nc1ccc2oc(-c3ccc(Cl)cn3)nc2c1` [Example 270, N-(2-(5-chloropyridin-2-yl)benzo[d]oxazol-5-yl)isobutyramide], the activity at 10 µM was over 401%. Still for that read-out and setting: in the case of `Cc1cc2nc(-c3ccc(Cl)cc3Cl)oc2cc1C` [Example 224, 2-(2,4-dichlorophenyl)-5,6-dimethylbenzo[d]oxazole] it was over 401%; in that of `COc1ccc(-c2ccc3oc(-c4ccc(Cl)cc4)nc3c2)cn1` [Example 305, 2-(4-chlorophenyl)-5-(6-methoxypyridin-3-yl)benzo[d]oxazole], 201 to 300%; in that of `Cc1ccc(-c2nc3cc(C(C)(C)C)ccc3o2)cc1` [Example 172, 5-tert-butyl-2-p-tolylbenzo[d]oxazole], over 401%. With `CC(C)C(=O)Nc1ccc2ccn(Cc3ccccc3)c2c1` [Example 387, N-(1-benzyl-1H-indol-6-yl)isobutyramide], the activity at 10 µM is under 200%. Regarding `CS(=O)(=O)c1ccc(-c2nc3cc(Cl)ccc3o2)cc1` [Example 395, 5-chloro-2-(4-(methylsulfonyl)phenyl)benzo[d]oxazole], the activity at 10 µM is 201 to 300%. As for `CCCCC(=O)Nc1ccc2oc(-c3ccc(C(F)(F)F)cc3)nc2c1` [Example 126, N-(2-(4-(trifluoromethyl)phenyl)benzo[d]oxazol-5-yl)pentanamide], the activity at 10 µM is under 200%. Consider `CC(O)c1ccc2oc(-c3ccc(Cl)c(Cl)c3)nc2c1` (stereo not shown) [Example 456, 2-(3′,4′-Dichlorophenyl)-5-(1′-hydroxyethyl)-benzoxazole], for which the activity at 10 µM was over 401%. `CCN(CC)c1ccc(-c2nc3cc(NC(=O)c4ccccc4)ccc3o2)cc1` [Example 62, N-(2-(4-(diethylamino)phenyl)benzo[d]oxazol-5-yl)benzamide]: the activity at 10 µM is under 200%. `CS(=O)(=O)c1ccc2oc(-c3ccc(Cl)cc3)nc2c1` [Example 400, 2-(4-chlorophenyl)-5-(methylsulfonyl)benzo[d]oxazole]: the activity at 10 µM is 201 to 300%.

Staying with this assay, now noted: luciferase reporter assay in murine H2K cells; classified relative to control.
Regarding `O=[N+]([O-])c1ccc2nc(-c3ccccc3)[nH]c2c1` [Example 604], the Activity result is “+++ (Between 301% and 400% relative to control)”.

For the molecule `O=C(Cc1cccs1)Nc1ccc(-c2nc3ccccc3[nH]2)cc1` [Example 493], the Activity result is given as “+ (Up to 200% relative to control)”.

For the molecule `Cn1c(NC(=N)c2ccccc2)nc2ccccc21` [Example 669], the Activity result is “++ (Between 201% and 300% relative to control)”. Turning to `CCC(=O)Nc1cccc(-c2nc3cc(C)ccc3o2)c1` [Example 644], the Activity result is “+++ (Between 301% and 400% relative to control)”. The same measure, in the same setting: in the case of `Cc1cc(-c2nc3ccccc3s2)ccc1[N+](=O)[O-]` [Example 599] it was “++++ (Above 401% relative to control)”; in that of `O=C(Nc1nc2ccc(F)cc2s1)c1ccccc1Br` [Example 629], “++++ (Above 401% relative to control)”. As to `Nc1ccc(-c2nc3ccccc3o2)c(O)c1` [Example 484], the Activity entry is “++ (Between 201% and 300% relative to control)”. The same measure, in the same setting: in the case of `O=C(CSc1nc2ccccc2s1)N1CCCCC1` [Example 617] it was “++++ (Above 401% relative to control)”; in that of `O=[N+]([O-])c1cc(-c2nc3ccccc3s2)ccc1Cl` [Example 523], “+ (Up to 200% relative to control)”; in that of `Nc1ccc(-c2nc3cc(Cl)cc(Cl)c3o2)cc1` [Example 518], “++ (Between 201% and 300% relative to control)”. Turning to `CCOCCC(=O)Nc1ccc(-c2nc3ccc(C)cc3s2)cc1` [Example 660], the Activity entry was “+++ (Between 301% and 400% relative to control)”.

Consider `Nc1ccc(-c2nc3ccccc3o2)cc1` [Example 478], for which the Activity result was “++ (Between 201% and 300% relative to control)”. Same read-out and setting: as for `COc1ccc(OCc2nc3ccccc3n2C)cc1` [Example 528], the entry is “++ (Between 201% and 300% relative to control)”; as for `Clc1ccc(SCc2ccc(-c3nc4ccccc4[nH]3)cc2)cc1` [Example 460], “+ (Up to 200% relative to control)”.
